A word on the KD: it is the equilibrium constant for the complex coming apart. A high value points to a looser complex.

The record followed here is article PMC3196276 (2011).

For assay [1], the system named is U7C (PK site mutant) (RNA, riboswitch) GGAGAGCAGAUGAUUCGCGUUAAGUGUGUGUGAAUGGGAUGUCGUCACACAACGAAGCGAGAGCGCGGUGAAUCAUUGCAUCCGCUCCA
As to the kind of experiment: ITC. The conditions noted are these: 6 mM MgCl2, 100 mM NaCl, 10 mM KCl; 10 mM HEPES pH 8.0, 1 mM DTT, 25 °C.

The test system of assay [2] is U25C (3WJ site mutant) (RNA, riboswitch) GGAGAGUAGAUGAUUCGCGUUAAGCGUGUGUGAAUGGGAUGUCGUCACACAACGAAGCGAGAGCGCGGUGAAUCAUUGCAUCCGCUCCA
Put plainly: ITC. The conditions noted are these: 6 mM MgCl2, 100 mM NaCl, 10 mM KCl; 10 mM HEPES pH 8.0, 1 mM DTT, 25 °C.

In assay [3] the test system is Smu wild type (wt) THF riboswitch aptamer, crystallization sequence (RNA, riboswitch) GGAGAGUAGAUGAUUCGCGUUAAGUGUGUGUGAAUGGGAUGUCGUCACACAACGAAGCGAGAGCGCGGUGAAUCAUUGCAUCCGCUCCA
Conditions: apparent; ligand not given, THF from context.

With `Nc1nc2c(c(=O)[nH]1)N(C=O)[C@@H](CNc1ccc(C(=O)N[C@@H](CCC(=O)O)C(=O)O)cc1)CN2`, the KD in assay [1] came to 23 ± 2 µM; in assay [2] it was 18 ± 1 µM. On to `Nc1nc2c(c(=O)[nH]1)N[C@@H](CNc1ccc(C(=O)N[C@@H](CCC(=O)O)C(=O)O)cc1)CN2`, for which the “KD,app” value in assay [3] is 18 ± 1 µM.
